This is an account of results in patent publication US11912718B2, “Solid forms of a thienopyrimidinedione ACC inhibitor and methods for production thereof” (Gilead Apollo, LLC, priority 2016, dated 2024).

The term IC50 denotes the concentration at which inhibition is half-maximal. As usually defined, the solubility is the dissolved amount per volume that the medium holds. As a reminder, the logD is the decadic logarithm of the distribution of all forms, ionised or not, between an organic phase and buffer at a given pH.

For series [1], the system named is ACC1. The settings on record: enzyme isolated from rat, mouse, monkey and human; cited from earlier work.
For the next series, the system named is ACC2. As to conditions: enzyme isolated from rat, mouse, monkey and human; cited from earlier work.
A further series in a line: Aqueous solubility. It is filed as physicochemical. On the procedure:
Purity and concentration analyses were carried out using the following method: […]

Series [2] is described as follows: Log P and Log D determination (potentiometric). It counts as physicochemical. As to conditions: octanol/water, pH 7.4. On the procedure: Log P analysis was performed using a potentiometric (pH-metric) method. The sample was titrated in various ratios of octanol/water in two titrations covering the pH range from 1.9 to 12.0 at concentrations of 1.0 to 0.6 mM. The shift of the aqueous pKa in the presence of octanol was used to determine log P of the neutral and anionic species. From this information a lipophilicity profile was constructed, such that that log D at a given pH could be determined.

A short description of series [3]: Dynamic vapor sorption (DVS). It counts as physicochemical. As to conditions: for state or form of the material after the DVS experiment: post DVS, XRPD. From the text: For DVS analysis as discussed in Example 8, approximately 10 milligrams of sample was placed into a mesh vapor sorption balance pan and loaded into a DVS-1 dynamic vapor sorption balance (Surface Measurement Systems). The sample was subjected to a ramping profile from 0-90% relative humidity (RH) at 10% increments, maintaining the sample at each step until a stable weight had been achieved (99.5% step completion). After completion of the sorption cycle, the sample was dried using the reverse procedure, lowering the RH to 0%. The weight change during the sorption/desorption cycles was plotted.
For Examples 2, 5, 7, 9, and 13 to 18, hygroscopicity was studied using dynamic vapor sorption (DVS, TA Q5000 SA, TA Instruments, New Castle, Del. or DVS, DVS Intrinsic, Surface Measurement Systems, London, UK). A sample (2-20 mg) was placed in an aluminum DVS pan and loaded on the sample side of the twin pan balance. The water sorption and desorption were studied as a function of relative humidity (RH) at 25° C. In 10% RH increments, the relative humidity was increased from 5% RH to 95% RH and then decreased back to 5%. […] Data analysis was performed using Universal Analysis 2000 Version 4.7A (TA Instruments, New Castle, Del.) for TA DVS runs and Microsoft Excel for SMS DVS runs.

Series [4] can be described thus: Competitive slurrying of crystal forms. It counts as physicochemical.
Series [5] in a line: Storage stability at 40° C. and 75% RH. It is filed as physicochemical. The settings on record: 7 days at 40° C. and 75% RH. On the procedure:
100 milligrams of Form IV of Compound 1, prepared according to the method of Example 5, was heated to 80° C. in an oven. Form VII was confirmed to be a desolvated form of Form IV, produced by drying the methanol solvate Form IV. […] Differential scanning calorimetry (DSC) results (FIG. 40) were consistent with thermogravimetric analysis. […] (peak at 141.4° C.), with the peak of the exotherm at 151.6° C. […] (peak at 195.0° C.). A smaller endotherm with a peak at 207.0° C. was likely to indicate formation of a higher melting crystalline form. […] The uptake between 40 and 70% RH could potentially be indicative of hydrate formation (tentatively assigned the name Form IX). […] NMR and IR data confirmed the structural integrity of Compound 1 present.

Series [6] can be described thus: Prolonged exposure to water (XRPD). It counts as physicochemical.
The target of series [7] is ACC1 (Homo sapiens, UniProt Q13085). Nature of the series: Inhibition of ACC1 by metabolites of Compound 1. It counts as biochemical.
Setting [8] is: acetone, acetonitrile:water (10%), ethanol, ethyl acetate, ambient temperature and 60° C., XRPD and DSC.

Converted amounts (≈) assume the structure as drawn.

As to `O=C(c1c2ccccc2cc2ccccc12)N1CCC(N2CCC[C@@H](C(=O)N3CCOCC3)C2)CC1` [CP-640186], the IC50 with ACC1 [1] and in the series on ACC2 was roughly 60 nM each time.

On to `COc1ccccc1[C@H](Cn1c(=O)n(C(C)(C)C(=O)O)c(=O)c2c(C)c(-c3ncco3)sc21)OC1CCOCC1` [Form I], for which the solubility in the series “Aqueous solubility” (aqueous medium, aqueous buffer, pH 5.5 and below) is less than 10 µg/mL. This molecule displayed a logD in [2] of 1.06. Moreover, in series [3] (at about 95% RH), the “weight gain (moisture sorption)” value was roughly 0.45%. Besides, the “state or form of the material after the DVS experiment” value in series [3] is “had not changed forms”. Besides, the relative thermodynamic stability result in series [4] (between 22-60° C.) was “more thermodynamically stable form”.

Take `COc1ccccc1[C@H](Cn1c(=O)n(C(C)(C)C(=O)O)c(=O)c2c(C)c(-c3ncco3)sc21)OC1CCOCC1` [Form VIII]: the “result of competitive slurrying with Form I” value is recorded as “conversion to Form I” in series [4] (1:1 ratio in 6:4 ethanol:water, room temperature, about two weeks, XRPD) and “conversion to Form I” in series [4] (setting [8]).

In turn, `COc1ccccc1[C@H](Cn1c(=O)n(C(C)(C)C(=O)O)c(=O)c2c(C)c(-c3ncco3)sc21)OC1CCOCC1` [Form VII] showed a solubility in the series “Aqueous solubility” (water) of 109 µg/mL (≈ 191 µM). Also, the “water uptake (DVS)” value in series [3] (at 90% RH) is on record as greater than 4%. Also, in series [3], the “state or form of the material after the DVS experiment” value is given as “no change in form”. In series [5], the “chemical and physical stability on storage” value was “chemically and physically stable”; the purity after storage amounted to 99.85%. For the same molecule, the “form change on prolonged exposure to water” value in series [6] is given as “conversion of Form VII to Form I”. In [4] (setting [8]), the “result of competitive slurrying with Form I” value is reported as “conversion to Form I”.

Regarding `COc1ccccc1[C@H](Cn1c(=O)n(C(C)(C)C(=O)OC2OC(C(=O)O)C(O)C(O)C2O)c(=O)c2c(C)c(-c3ncco3)sc21)OC1CCOCC1` (stereo partly drawn) [M+glucuronide conjugate], on ACC1 [7], the IC50 amounted to 5 nM.

Turning to `Cc1c(-c2ncco2)sc2c1c(=O)n(C(C)(C)C(=O)O)c(=O)n2C[C@H](OC1CCOCC1)c1ccccc1O` [M-CH3 metabolite], the IC50 on ACC1 [7] is 22 nM.
